# Patent US6737383B1, “Herbicidal oxadiazolidines” (priority 1999, dated 2004)
# Experiments:
# [1] = system: bedstraw; test: Test B pre/postemergence bedstraw; assay type: in vivo, Galium aparine
# Summary of the method: (§1)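 Response is a visual 0-to-10 score relative to untreated plants, where 0 means no effect and 10 means complete control, taken twelve to sixteen days after application. Treatments went onto soil at planting and onto foliage of 1- to 4-leaf plants, using a surfactant-containing non-phytotoxic solvent.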
# [2] = system: blackgrass; test: Test B pre/postemergence blackgrass; assay type: in vivo, Alopecurus myosuroides
# Summary of the method: as §1
# [3] = system: surinam grass; test: Test B pre/postemergence surinam grass; assay type: in vivo, Brachiaria decumbens
# Summary of the method: as §1
# [4] = system: cocklebur; test: Test B pre/postemergence cocklebur; assay type: in vivo, Xanthium strumarium
# Summary of the method: as §1
# [5] = system: corn; test: Test B pre/postemergence corn; assay type: in vivo, Zea mays
# Summary of the method: as §1
# [6] = system: crabgrass; test: Test B pre/postemergence crabgrass; assay type: in vivo, Digitaria sanguinalis
# Summary of the method: as §1
# [7] = system: giant foxtail; test: Test B pre/postemergence giant foxtail; assay type: in vivo, Setaria faberii
# Summary of the method: as §1
# [8] = system: morningglory; test: Test B pre/postemergence morningglory; assay type: in vivo, Ipomoea hederacea
# Summary of the method: as §1
# [9] = system: rape; test: Test B pre/postemergence rape; assay type: in vivo, Brassica napus
# Summary of the method: as §1
# [10] = system: soybean; test: Test B pre/postemergence soybean; assay type: in vivo, Glycine max
# Summary of the method: as §1
# [11] = system: velvetleaf; test: Test B pre/postemergence velvetleaf; assay type: in vivo, Abutilon theophrasti
# Summary of the method: as §1
# [12] = system: wheat; test: Test B pre/postemergence wheat; assay type: in vivo, Triticum aestivum
# Summary of the method: as §1
# [13] = system: wild oat; test: Test B pre/postemergence wild oat; assay type: in vivo, Avena fatua
# Summary of the method: as §1
# [14] = system: smallflower flatsedge; test: Test B flood test smallflower flatsedge; assay type: in vivo, Cyperus difformis
# Summary of the method: (§2)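 Read-out is a visual response score from 0 (no effect) to 10 (complete control), assigned by comparison with untreated controls. Treatment was applied at the 2-leaf stage, and plants stayed in the greenhouse for twelve to sixteen days before scoring.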
# [15] = system: duck salad; test: Test B flood test duck salad; assay type: in vivo, Heteranthera limosa
# Summary of the method: as §2
# [16] = system: bamyardgrass; test: Test B flood test barnyardgrass; assay type: in vivo, Echinochloa crus-galli
# Summary of the method: as §2
# [17] = Preemergence, Rate 62 g/ha, scale of 0 to 10 where 0 is no effect and 10 is complete control
# [18] = Preemergence, Rate 125 g/ha, 0 is no effect, 10 is complete control
# [19] = Preemergence, Rate 250 g/ha, scale 0 to 10, 0 is no effect, 10 is complete control
# [20] = Preemergence, Rate 500 g/ha, scale of 0 to 10 where 0 is no effect and 10 is complete control
# [21] = Rate 62 g/ha, Postemergence, scale of 0 to 10 where 0 is no effect and 10 is complete control
# [22] = Rate 125 g/ha, Postemergence, scale 0 to 10
# [23] = Rate 500 g/ha, Postemergence, scale 0 to 10
# [24] = Rate 62 g/ha, headed Pre-emergence (flood test species), scale 0 to 10 (0 no effect, 10 complete control)
# [25] = Rate 125 g/ha, Pre-emergence, flood test species, scale 0 to 10 where 0 is no effect and 10 is complete control
# [26] = Rate 250 g/ha, Pre-emergence, flood-test species, scale 0 to 10, 0 is no effect, 10 is complete control
# [27] = Rate 500 g/ha, headed Pre-emergence (flood test species), scale 0 to 10 (0 no effect, 10 complete control)
smiles,measurement,setting,value
Cc1nc(C)c(-n2c(=O)on(C(=O)N(c3ccccc3)C(C)C)c2=O)s1 [Compound 197],Bedstraw plant response rating,[1]; [17],0
same,Bedstraw plant response rating (0 to 10 scale),[1]; [18],0
same,Bedstraw plant response rating,[1]; [19],0
same,"Plant response rating, Bedstraw",[1]; [20],0
same,Bedstraw plant response rating,[1]; [21],0
same,Bedstraw plant response rating,[1]; [22],0
same,"Plant response rating (0 to 10; 0 is no effect, 10 is complete control), Bedstraw","[1]; Rate 250 g/ha, Postemergence",0
same,Blackgrass plant response rating,[2]; [17],0
same,Blackgrass plant response rating (0 to 10 scale),[2]; [18],0
same,Blackgrass plant response rating,[2]; [19],0
same,"Plant response rating, Blackgrass",[2]; [20],0
same,Blackgrass plant response rating,[2]; [21],0
same,Blackgrass plant response rating,[2]; [22],0
same,"Plant response rating (0 to 10; 0 is no effect, 10 is complete control), Blackgrass","[2]; Rate 250 g/ha, Postemergence",0
same,Blackgrass plant response rating,[2]; [23],0
same,B. signalgrass plant response rating,[3]; [17],0
same,B. signalgrass plant response rating (0 to 10 scale),[3]; [18],0
same,B. signalgrass plant response rating,[3]; [19],0
same,"Plant response rating, B. signalgrass",[3]; [20],0
same,B. signalgrass plant response rating,[3]; [21],0
same,B. signalgrass plant response rating,"[3]; Rate 125 g/ha, Postemergence, scale 0 (no effect) to 10 (complete control)",0
same,"Plant response rating, B. signalgrass","[3]; Rate 250 g/ha, Postemergence, scale 0 to 10, 0 is no effect, 10 is complete control",0
same,B. signalgrass plant response rating,"[3]; Rate 500 g/ha, Postemergence, scale 0 to 10, 0 no effect, 10 complete control",0
same,Cocklebur plant response rating,[4]; [17],0
same,Cocklebur plant response rating (0 to 10 scale),[4]; [18],0
same,Cocklebur plant response rating,[4]; [19],0
same,"Plant response rating, Cocklebur",[4]; [20],0
same,Cocklebur plant response rating,[4]; [21],0
same,Cocklebur plant response rating,[4]; [22],0
same,"Plant response rating (0 to 10; 0 is no effect, 10 is complete control), Cocklebur","[4]; Rate 250 g/ha, Postemergence",0
same,Cocklebur plant response rating,[4]; [23],0
same,Corn plant response rating,[5]; [17],0
same,Corn plant response rating (0 to 10 scale),[5]; [18],0
same,Corn plant response rating,[5]; [19],0
same,"Plant response rating, Corn",[5]; [20],0
same,Corn plant response rating,[5]; [21],0
same,Corn plant response rating,[5]; [22],0
same,"Plant response rating (0 to 10; 0 is no effect, 10 is complete control), Corn","[5]; Rate 250 g/ha, Postemergence",0
same,Corn plant response rating,[5]; [23],0
same,Crabgrass plant response rating,[6]; [17],0
same,Crabgrass plant response rating (0 to 10 scale),[6]; [18],0
same,Crabgrass plant response rating,[6]; [19],0
same,"Plant response rating, Crabgrass",[6]; [20],3
same,Crabgrass plant response rating,[6]; [21],0
same,Crabgrass plant response rating,[6]; [22],0
same,"Plant response rating (0 to 10; 0 is no effect, 10 is complete control), Crabgrass","[6]; Rate 250 g/ha, Postemergence",0
same,Crabgrass plant response rating,[6]; [23],2
same,Giant foxtail plant response rating,[7]; [17],0
same,Giant foxtail plant response rating (0 to 10 scale),[7]; [18],0
same,Giant foxtail plant response rating,[7]; [19],0
same,"Plant response rating, Giant foxtail",[7]; [20],3
same,Giant foxtail plant response rating,[7]; [21],0
same,Giant foxtail plant response rating,[7]; [22],0
same,"Plant response rating (0 to 10; 0 is no effect, 10 is complete control), Giant foxtail","[7]; Rate 250 g/ha, Postemergence",0
same,Giant foxtail plant response rating,[7]; [23],3
same,Morningglory plant response rating,[8]; [17],0
same,Morningglory plant response rating (0 to 10 scale),[8]; [18],0
same,Morningglory plant response rating,[8]; [19],0
same,"Plant response rating, Morningglory",[8]; [20],0
same,Morningglory plant response rating,[8]; [21],3
same,Morningglory plant response rating,[8]; [22],5
same,"Plant response rating (0 to 10; 0 is no effect, 10 is complete control), Morningglory","[8]; Rate 250 g/ha, Postemergence",5
same,Morningglory plant response rating,[8]; [23],0
same,Rape plant response rating,[9]; [17],0
same,Rape plant response rating (0 to 10 scale),[9]; [18],0
same,Rape plant response rating,[9]; [19],0
same,"Plant response rating, Rape",[9]; [20],0
same,Rape plant response rating,[9]; [21],0
same,Rape plant response rating,[9]; [22],0
same,"Plant response rating (0 to 10; 0 is no effect, 10 is complete control), Rape","[9]; Rate 250 g/ha, Postemergence",0
same,Rape plant response rating,[9]; [23],0
same,Soybean plant response rating,[10]; [17],0
same,Soybean plant response rating (0 to 10 scale),[10]; [18],0
same,Soybean plant response rating,[10]; [19],0
same,"Plant response rating, Soybean",[10]; [20],0
same,Soybean plant response rating,[10]; [21],0
same,Soybean plant response rating,[10]; [22],0
same,"Plant response rating (0 to 10; 0 is no effect, 10 is complete control), Soybean","[10]; Rate 250 g/ha, Postemergence",0
same,Soybean plant response rating,[10]; [23],0
same,Velvetleaf plant response rating,[11]; [17],0
same,Velvetleaf plant response rating,[11]; [19],0
same,"Plant response rating, Velvetleaf",[11]; [20],0
same,Velvetleaf plant response rating,[11]; [21],0
same,Velvetleaf plant response rating,[11]; [22],0
same,"Plant response rating (0 to 10; 0 is no effect, 10 is complete control), Velvetleaf","[11]; Rate 250 g/ha, Postemergence",0
same,Wheat plant response rating,[12]; [17],0
same,Wheat plant response rating,[12]; [19],0
same,"Plant response rating, Wheat",[12]; [20],0
same,Wheat plant response rating,[12]; [21],0
same,Wheat plant response rating,[12]; [22],0
same,"Plant response rating (0 to 10; 0 is no effect, 10 is complete control), Wheat","[12]; Rate 250 g/ha, Postemergence",0
same,Wild oats plant response rating,[13]; [17],0
same,Wild oats plant response rating,[13]; [19],0
same,"Plant response rating, Wild oats",[13]; [20],0
same,Wild oats plant response rating,[13]; [21],0
same,Wild oats plant response rating,[13]; [22],0
same,"Plant response rating (0 to 10; 0 is no effect, 10 is complete control), Wild oats","[13]; Rate 250 g/ha, Postemergence",0
same,S. Flatsedge plant response rating,[14]; [24],0
same,S. Flatsedge plant response rating,[14]; [25],0
same,S. Flatsedge plant response rating,[14]; [26],0
same,S. Flatsedge plant response rating,"[14]; Rate 500 g/ha, Pre-emergence, flood test species, scale 0 to 10 (0 no effect, 10 complete control)",0
same,Ducksalad plant response rating,[15]; [24],0
same,Ducksalad plant response rating,[15]; [25],0
same,Ducksalad plant response rating,[15]; [26],0
same,"Plant response rating, Ducksalad",[15]; [27],0
same,Barnyardgrass plant response rating,[16]; [24],0
same,Barnyardgrass plant response rating,[16]; [25],0
same,Barnyardgrass plant response rating,[16]; [26],0
same,"Plant response rating, Barnyardgrass",[16]; [27],0
